# Source: paper PMC11995724, “Antibiotic target discovery by integrated phenotypic and activity-based profiling of electrophilic fragments” (Cell chemical biology, 2025)
# Assay: in vitro
# Conditions: human, hek293t cells
row,SMILES,"viability at 48 h, 25 µM [%]"
1,"COc1ccc(Cl)c2c1CCCC2N(C)C(=O)C(C)Cl (stereo not drawn) [7-P09, 2-chloro-N-(8-chloro-5-methoxy-1,2,3,4-tetrahydronaphthalen-1-yl)-N-methylpropanamide]",86.7
2,"COc1ccccc1NC(=O)c1ccc(NC(=O)C(C)Cl)cc1 (stereo not drawn) [5-C17, 4-(2-chloropropanamido)-N-(2-methoxyphenyl)benzamide]",58
3,"CC(Cl)C(=O)NC(CC1CCCCC1)c1ncccn1 (stereo not drawn) [7-H13, 2-chloro-N-[2-cyclohexyl-1-(pyrimidin-2-yl)ethyl]propanamide]",91.2
4,"CCC(NC(=O)CCl)c1nc(C)n[nH]1 (stereo not drawn) [5-O14, 2-chloro-N-[1-(3-methyl-1H-1,2,4-triazol-5-yl)propyl]acetamide]",96.8
5,"COc1ccc(C(NC(=O)CCl)C2CC2)cc1 (stereo not drawn) [4-K19, 2-chloro-N-[cyclopropyl(4-methoxyphenyl)methyl]acetamide]",2.83
6,"C=CC(=O)N(Cc1cc(C)cc2c(C)c(C)[nH]c12)CC1(C)COC1 [2-E07, N-[(3-methyloxetan-3-yl)methyl]-N-[(2,3,5-trimethyl-1H-indol-7-yl)methyl]prop-2-enamide]",80.6
7,"C=CC(=O)N1CCCC1 [1-G08, 1-(pyrrolidin-1-yl)prop-2-en-1-one]",70.2
8,"COc1ccc(-n2c(C)cc(C=C(C#N)C(=O)N(C)OC)c2C)cc1 [9-N16, 2-cyano-N-methoxy-3-[1-(4-methoxyphenyl)-2,5-dimethyl-1H-pyrrol-3-yl]-N-methylprop-2-enamide]",88.4
9,"C=CC(=O)NCc1noc2c1CC(C)(C)CC2 [2-L07, N-[(5,5-dimethyl-4,5,6,7-tetrahydro-1,2-benzoxazol-3-yl)methyl]prop-2-enamide]",60
10,"C=CC(=O)NCCn1cc(Cl)c(C(F)(F)F)n1 [2-F03, N-{2-[4-chloro-3-(trifluoromethyl)-1H-pyrazol-1-yl]ethyl}prop-2-enamide]",81.6
11,"CCc1ccc(CC)c(C(=O)CCl)c1 [10-H14, 2-chloro-1-(2,5-diethylphenyl)ethan-1-one]",33.6
12,"C=CC(=O)NCc1ccc(C(=O)N2CCC(c3ccn[nH]3)CC2)cc1 [3-K08, N-({4-[4-(1H-pyrazol-5-yl)piperidine-1-carbonyl]phenyl}methyl)prop-2-enamide]",95.2
13,"C=CC(=O)N1CCC(Cc2noc(C)n2)CC1 [2-G22, 1-{4-[(5-methyl-1,2,4-oxadiazol-3-yl)methyl]piperidin-1-yl}prop-2-en-1-one]",103
14,"O=C(CCl)NC(=O)c1ccc(OC(F)F)cc1 [5-J22, N-(2-chloroacetyl)-4-(difluoromethoxy)benzamide]",108
15,"CC(Cl)C(=O)N(C)C1CCN(C(=O)c2ccccc2)CC1 (stereo not drawn) [6-B18, N-(1-benzoylpiperidin-4-yl)-2-chloro-N-methylpropanamide]",95.9
16,"C=CC(=O)Nc1cccc(N2CCOCC2)c1 [1-K04, N-[3-(morpholin-4-yl)phenyl]prop-2-enamide]",74.1
17,"CC(Cl)C(=O)Nc1ccc2oc(=O)n(CCN(C)C)c2c1 (stereo not drawn) [5-L19, 2-chloro-N-{3-[2-(dimethylamino)ethyl]-2-oxo-2,3-dihydro-1,3-benzoxazol-5-yl}propanamide]",109
18,"C=CC(=O)N(Cc1c2c(nn1C)CCOC2)c1cc(C)cc(C)c1 [2-A07, N-(3,5-dimethylphenyl)-N-({2-methyl-2H,4H,6H,7H-pyrano[4,3-c]pyrazol-3-yl}methyl)prop-2-enamide]",57.4
19,"CC(NC(=O)C(C#N)=Cc1cnn(C)c1)c1ccccc1 (stereo not drawn) [8-N10, 2-cyano-3-(1-methyl-1H-pyrazol-4-yl)-N-(1-phenylethyl)prop-2-enamide]",97
20,"CCN(CC(=O)NC1CCS(=O)(=O)C1)C(=O)CCl (stereo not drawn) [4-I19, 2-chloro-N-{[(1,1-dioxo-1lambda6-thiolan-3-yl)carbamoyl]methyl}-N-ethylacetamide]",1.33
21,"C=CC(=O)Nc1ccccc1Cl [1-O10, N-(2-chlorophenyl)prop-2-enamide]",63
22,"O=C(CCl)Nc1cccc(S(=O)(=O)N2CCOCC2)c1 [4-P08, 2-chloro-N-[3-(morpholine-4-sulfonyl)phenyl]acetamide]",0.715
23,"C=CC(=O)N1CCCC1c1nc(N(C)C)no1 (stereo not drawn) [2-C21, 1-{2-[3-(dimethylamino)-1,2,4-oxadiazol-5-yl]pyrrolidin-1-yl}prop-2-en-1-one]",191
24,"O=C(CCl)c1cnc(N2CCCCC2)s1 [10-L17, 2-chloro-1-[2-(piperidin-1-yl)-1,3-thiazol-5-yl]ethan-1-one]",101
25,"C=CC(=O)NC(Cc1ccccc1)c1ncco1 (stereo not drawn) [1-B07, N-[1-(1,3-oxazol-2-yl)-2-phenylethyl]prop-2-enamide]",118
26,"COc1ccc(C=C(C#N)C(=O)Nc2ccc3c(c2)OCCO3)cc1O [8-H19, 2-cyano-N-(2,3-dihydro-1,4-benzodioxin-6-yl)-3-(3-hydroxy-4-methoxyphenyl)prop-2-enamide]",99.8
27,"CC(C1CC1)N(Cc1ccccc1)C(=O)CCl (stereo not drawn) [5-F09, N-benzyl-2-chloro-N-(1-cyclopropylethyl)acetamide]",0.956

row,SMILES,"viability at 48 h, 25 µM [%]"
1,"CNC(=O)C(NC(=O)CCl)c1ccccc1 (stereo not drawn) [6-M06, 2-(2-chloroacetamido)-N-methyl-2-phenylacetamide]",0.807
2,"CC(=O)Nc1ccc(C(=O)CCl)cc1 [10-O12, N-[4-(2-chloroacetyl)phenyl]acetamide]",12.6
3,"CCC(C)C1CN(Cc2ccc(C)nc2)CCN1C(=O)C(C)Cl (stereo not drawn) [7-O16, 1-[2-(butan-2-yl)-4-[(6-methylpyridin-3-yl)methyl]piperazin-1-yl]-2-chloropropan-1-one]",74.9
4,"C=CC(=O)NCCC(=O)N1CCN(c2ccc(C#N)cc2F)CC1 [3-D07, N-{3-[4-(4-cyano-2-fluorophenyl)piperazin-1-yl]-3-oxopropyl}prop-2-enamide]",56.6
5,"Cc1ccc(NC(=O)CCl)c([N+](=O)[O-])c1 [4-A07, 2-chloro-N-(4-methyl-2-nitrophenyl)acetamide]",2.99
6,"C=CC(=O)N(C)Cc1conc1CC [2-O15, N-[(3-ethyl-1,2-oxazol-4-yl)methyl]-N-methylprop-2-enamide]",187
7,"C=CC(=O)NC1CCc2ccccc21 (stereo not drawn) [1-A14, N-(2,3-dihydro-1H-inden-1-yl)prop-2-enamide]",107
8,"O=C(CCl)NCc1ccc(N2CCOCC2)nc1 [6-E22, 2-chloro-N-{[6-(morpholin-4-yl)pyridin-3-yl]methyl}acetamide]",8.26
9,"NC(=O)CCc1ccc(C(=O)CCl)cc1 [10-I03, 3-[4-(2-chloroacetyl)phenyl]propanamide]",4.69
10,"C=CC(=O)Nc1ccc(OC)c(COC)c1 [3-B06, N-[4-methoxy-3-(methoxymethyl)phenyl]prop-2-enamide]",89.7
11,"C=CC(=O)Nc1ccc2occc2c1 [3-H14, N-(1-benzofuran-5-yl)prop-2-enamide]",99.9
12,"COc1ccc(NC(=O)C(C#N)=Cc2cccc(O)c2)cc1OC [8-F09, 2-cyano-N-(3,4-dimethoxyphenyl)-3-(3-hydroxyphenyl)prop-2-enamide]",86.1
13,"CCN(CC)S(=O)(=O)c1ccc(Cl)c(NC(=O)C(C)Cl)c1 (stereo not drawn) [6-C20, 2-chloro-N-[2-chloro-5-(diethylsulfamoyl)phenyl]propanamide]",79.6
14,"CC(Cl)C(=O)N1CCCC(CC(=O)OC(C)(C)C)CC1 (stereo not drawn) [6-P18, tert-butyl 2-[1-(2-chloropropanoyl)azepan-4-yl]acetate]",93.9
15,"N#CC(=Cc1ccccc1)C(=O)Nc1nncs1 [8-K09, 2-cyano-3-phenyl-N-(1,3,4-thiadiazol-2-yl)prop-2-enamide]",94.2
16,"COc1cc(C=C(C#N)C(N)=O)ccc1OC(F)F [8-P08, 2-cyano-3-[4-(difluoromethoxy)-3-methoxyphenyl]prop-2-enamide]",82.2
17,"C=CC(=O)N[C@H]1C[C@H](S(C)(=O)=O)C1 [3-D18, N-[(1r,3r)-3-methanesulfonylcyclobutyl]prop-2-enamide]",83.6
18,"COc1ccc(C(=O)CCl)cc1Cl [10-D10, 2-chloro-1-(3-chloro-4-methoxyphenyl)ethan-1-one]",1.84
19,"COc1cc(C=C(C#N)C(=O)Nc2ccccn2)ccc1O [9-P08, 2-cyano-3-(4-hydroxy-3-methoxyphenyl)-N-(pyridin-2-yl)prop-2-enamide]",124
20,"COc1cc(C=C(C#N)C(N)=O)cc(OC)c1OC [9-K13, 2-cyano-3-(3,4,5-trimethoxyphenyl)prop-2-enamide]",129
21,"CC(Cl)C(=O)N(C)C1CS(=O)(=O)c2ccc(Cl)cc21 (stereo not drawn) [7-M14, 2-chloro-N-(5-chloro-1,1-dioxo-2,3-dihydro-1lambda6-benzothiophen-3-yl)-N-methylpropanamide]",73
22,"COc1ccc(C2=NN(C(=O)CCl)C(c3ccc(F)cc3)C2)cc1 (stereo not drawn) [4-M20, 2-chloro-1-[5-(4-fluorophenyl)-3-(4-methoxyphenyl)-4,5-dihydro-1H-pyrazol-1-yl]ethan-1-one]",0.00411
23,"CC(Cl)C(=O)N[C@H]1CN(Cc2ccccc2)C[C@@H]1c1ccccc1 (mixture of isomers) [7-N09, rac-N-[(3R,4S)-1-benzyl-4-phenylpyrrolidin-3-yl]-2-chloropropanamide]",88.2
24,"N#CC(=Cc1cccc2c1OCO2)C(=O)Nc1cccc2ccccc12 [8-K12, 3-(1,3-dioxaindan-4-yl)-2-cyano-N-(naphthalen-1-yl)prop-2-enamide]",63.4
25,"CC(Cl)C(=O)Nc1ccc(F)c(F)c1 (stereo not drawn) [6-P08, 2-chloro-N-(3,4-difluorophenyl)propanamide]",101
26,"COc1ccccc1C=CC=C(C#N)C(=O)Nc1ccccn1 [9-L17, 2-cyano-5-(2-methoxyphenyl)-N-(pyridin-2-yl)penta-2,4-dienamide]",91.4
27,"C=CC(=O)N[C@@H](C)c1ccccc1OC [1-K06, N-[(1S)-1-(2-methoxyphenyl)ethyl]prop-2-enamide]",84.3
